Source: PubChem BioAssay AID1224910

Biological target: Serine/threonine-protein kinase PAK 2 (Homo sapiens) (UniProt Q13177)
Experiment: PubChem AID 1224910
Conditions: Caliper in vitro kinase assay, dephosphorylated PAK2

Chain of Serine/threonine-protein kinase PAK 2 (Homo sapiens) (Q13177 whole entry, looked up): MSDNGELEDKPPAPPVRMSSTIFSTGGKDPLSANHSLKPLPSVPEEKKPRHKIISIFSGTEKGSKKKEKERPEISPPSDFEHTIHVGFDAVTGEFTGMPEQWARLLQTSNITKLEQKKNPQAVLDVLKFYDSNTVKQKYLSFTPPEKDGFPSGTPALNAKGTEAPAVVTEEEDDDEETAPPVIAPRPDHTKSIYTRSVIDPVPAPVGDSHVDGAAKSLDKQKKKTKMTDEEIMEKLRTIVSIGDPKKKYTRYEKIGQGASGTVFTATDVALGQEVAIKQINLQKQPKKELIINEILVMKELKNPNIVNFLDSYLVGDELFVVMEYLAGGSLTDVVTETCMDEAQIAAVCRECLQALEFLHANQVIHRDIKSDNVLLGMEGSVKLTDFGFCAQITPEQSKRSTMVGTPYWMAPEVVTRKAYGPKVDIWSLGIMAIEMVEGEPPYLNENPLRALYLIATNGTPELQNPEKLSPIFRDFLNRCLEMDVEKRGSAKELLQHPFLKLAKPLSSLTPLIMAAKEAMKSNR

`CC(C)NC(=O)N1CC[C@H](N=C2Nc3cc(F)ccc3N(CC(F)F)c3ccc(Cl)cc32)C1` was tested, and the IC50 was 0.27 µM.
